The nature of test [1]: Inhibition of bovine thymus p56 LCK activity. Also on record: species or system Bos taurus.
Test [2] can be described thus: Inhibition of bovine thymus p56 LCK activity by competitive inhibition assay. Also on record: species or system Bos taurus.
For a further test, the species on record is Bos taurus. Put plainly: Inhibition of bovine thymus p56 LCK activity by noncompetitive inhibition assay.

Structures are written as SMILES. In brackets after ≈: the same amount, converted by molar mass. Activity calls are given as the source filed them. The calls are words filed in the database; no cut-off is given here. Bounds are passed on as bounds.

In turn, `COc1cc(O)c2c(c1)C(=O)c1cc(C)cc(O)c1C2=O` [PHYSCION] had an IC50 in test [1] greater than 800 µg/mL.

`Cc1cc(O)c2c(c1)C(=O)c1cc(O)cc(O)c1C2=O` [EMODIN] showed an IC50 in test [1] of 5 µg/mL (≈ 18.5 µM). This compound also registered an inhibitory constant (Ki) in test [2] of 13 µM. In addition, the result in the test filed under Bos taurus was Active.

Take `Cc1cc(O)c2c(c1)C(=O)c1cc(O)cc(O[C@@H]3O[C@H](CO)[C@@H](O)[C@H](O)[C@H]3O)c1C2=O` [EMODIN 8-O-BETA-D-GLUCOPYRANOSIDE]: in test [1], the half-inhibitory concentration (IC50) was greater than 800 µg/mL.

(Values after ChEMBL document CHEMBL1159034, “Emodin, a protein tyrosine kinase inhibitor from Polygonum cuspidatum” (J Nat Prod, 1992).)
